One block for each substance: values may come before it. Ends that are not written are not given here. * marks the point of attachment. For = O=C*
How the values were obtained:
DDR1 = experiment: Collagen-induced DDR1 phosphorylation in Wnt-5a antisense HB2 cells (immunoprecipitation/Western blot); type: cell-based, human; details: crude peptide (approximately 65% pure) 100 μM; 90 min on collagen I
Protocol: The phosphorylation status of DDR1 was analyzed as previously described (12), with the following modifications. After serum-depletion for 16 h, the cells were detached with Versene and then allowed to adhere to collagen I for 60 (MDA-MB-468) or 90 min (HB2) at 37° C. The experiments were terminated by lysing both adherent and non-adherent cells with a lysis buffer (50 mM Tris pH 7.4, 1% Triton-X, 5 mM EDTA, 5 mM EGTA, 50 mM NaCl, 10 μg/ml aprotinin, 2.5 mM benzamidine, 1 mM pefabloc, 1 μg/ml leupeptin and 1 mM Na3VO4). For immunoblotting an anti-DDR1 rabbit polyclonal Ab, sc-532 (Santa Cruz Biotech, Santa Cruz, Calif.) was used at a dilution of 1:10,000. The Ab recognizes DDR1b/c, which is essential because collagen only induces phosphorylation of the b or c isoforms of DDR1 in mammary epithelial cells (10).
Effects of crude peptides on collagen-induced DDR1 phosphorylation in Wnt-5a antisense HB2 cells. Single cells were allowed to adhere to collagen I-coated plates in the presence of the indicated crude peptide (100 μM). (A) Experiments performed in the presence of peptides 167-173. (B) Experiments performed in the presence of peptides 175-180. After 90 min the cells were lysed and DDR1 immunoprecipitated. Subsequently, the immunoprecipitates were subjected to Western blot analysis with an anti-phosphotyrosine Ab and then, after stripping, with an anti-DDR1 Ab to ascertain equal loading. The blots shown are representative of 3 separate experiments The diagrams show densitometric analysis of DDR1 phosphorylation, expressed as per cent of control.

[1] = system: Wnt-5a antisense HB2 cells; experiment: Adhesion of Wnt-5a antisense HB2 cells to collagen I (MTS); type: cell-based, human; details: for adhesion to collagen I, concentration-dependent analysis: 95% pure peptides, different concentrations
Protocol: (§1) The adhesion assay was carried out as previously described (12). Briefly, cells were serum-depleted for 16 h, detached with Versene and allowed to adhere as single cells to collagen I for 60 (MDA-MB-468) or 90 min (HB2) at 37° C. Non-adherent cells were removed by washing with PBS. The adherent cells were incubated with a (3-(4,5-dimethylthiazol-2-yl)-5-(3-carboxymethoxyphenyl)-2-(-4-sulfophenyl)-2H-tetrazolium, inner salt (MTS) dye reduction assay (Promega, Madison, Wis.) and absorbance was measured at 490 nm using a Fluostar microplate reader from BMG LabTechnologies (GmbH, Offenberg, Germany). In each experiment a single value was calculated based on the mean of adhesion from six separate wells after the adhesion to plastic alone had been subtracted. The CM used as a control in the adhesion assays was obtained from confluent Wnt-5a overexpressing HB2 cells (for experiments with Wnt-5a antisense HB2 cells) or Wnt-5a overexpressing MCF-7 cells (for MDA-MB-468 cells) stably transfected with a vector over-expressing Wnt5a. A collected CM was always used within three days.
To control the specificity of the CM, it was incubated with either the Wnt-5a or a control Ab for 45 min at 37° C. Subsequently 10 μl Protein A Sepharose was added for 30 min and after the protein A-bound antibodies were collected by centrifugation the remaining supernatants were used for the experiments.
Effects of crude peptides on adhesion of Wnt-5a antisense HB2 cells to collagen. (A) Single cells were allowed to adhere for 90 min in the absence or presence of the indicated crude peptides (100 μM). The amounts of adhesive cells were analyzed as described in the methods and the results are given as means±SEM of 7 separate experiments. (B) Adhesion of Wnt-5a antisense HB2 cells to collagen was analyzed after pre-treating the cells with an anti-[…]1-integrin Ab for 45 min before letting them adhere for 90 min in the absence or presence of peptides 171 or 175 (100 μM) or CM. The amounts of adhesive cells were analyzed as described in the methods and the results are given as means±SEM of 6 separate experiments (C) The diagram outlines a control of the presently used CM. The cells were allowed to adhere to collagen I-coated wells in the absence or presence of normal CM or Wnt-5a depleted CM. The amounts of adhesive cells were analyzed as described in the methods and the results are given as means±SEM of 6 separate experiments. Ns=not significant, * p<0.05, ** p<0.01 and *** p<0.001.
Effects of the selected and pure peptides on the ability of Wnt-5a antisense HB2 cells to adhere and migrate. (A-E) The ability of the cells to adhere to collagen type I-coated wells was analyzed as previously described for FIG. 2 in the absence or presence of different concentrations of the indicated peptide. (F) Effect of the indicated peptides on migration of Wnt-5a antisense HB2 in a transwell migration assay. The cells were allowed to migrate for 18 h in the absence or presence of 100 μM peptide or 0.4 μg/ml of recombinant Wnt5a. The data are given as means±SEM of 6-7 separate experiments, each performed in triplicate. * p<0.05 and ** p<0.01.

MDA-MB-468 cells [2] = experiment: Adhesion of MDA-MB-468 breast cancer cells to collagen I (MTS); type: cell-based, human; details: for adhesion to collagen I, N-terminal deletion variants and formylation of peptide 175: 60 min; for MDA-MB-468 cell adhesion: control 15.3±3.6, n=6
Protocol: as §1
Peptide-induced effects on adhesion and DDR1 phosphorylation in MDA-MB-468 breast cancer cells. (A) Western blot analysis of Wnt-5a protein expression in Wnt-5a antisense and Wnt-5a over-expressing HB2 cells in comparison to MDA-MB-468 tumour cells. The blot is representative of 9 separate experiments. (B) Peptide-induced effects on MDA-MB-468 tumour cell adhesion. The cells were allowed to adhere to collagen type I-coated wells for 60 min in the absence or presence of 100 μM of the indicated peptides or CM. The amounts of adhesive cells were analyzed as described in the methods and the results are given as means±SEM of 8 separate experiments. (C) MDA-MB-468 cell adhesion to collagen I-coated wells in the absence or presence of peptide 175 or a peptide with same amino acid sequence except for a substitution of cysteine for alanine (175Ala) or CM. The amount of adherent cells was estimated as in panel A and expressed as means±SEM of 6 separate experiments, ns=not significant, ** p<0.01 and *** p<0.001. (D) Single MDA-MB-468 cells were allowed to adhere to collagen I-coated plates for 60 min in the absence or presence of the indicated peptides (100 μM), CM or recombinant Wnt-5a (0.8 µg/ml). DDR1 immunoprecipitates were Western blotted with first an anti-phosphotyrosine Ab and then after stripping with an anti-DDR1 Ab. The blots shown are representative of 6 separate experiments.
(§2) Effects of peptide 175 modifications on its ability to induce MDA-MB-468 tumour cell adhesion and migration. (A) The cells were allowed to adhere for 60 min to collagen-I coated wells in the absence or presence of peptide 175, three stepwise N-terminal deletion variants of peptide 175 or a formylated version of the tested hexapeptide derived from peptide 175. The amounts of adhesive cells were analyzed as described in the methods and the results are given as means±SEM of 6 separate experiments. (B and C) The cells were allowed to migrate for 18 h in the absence or presence of 1 or 10 μM of peptide 175 (B) or the formylated hexapeptide (C). The data are given as means±SEM of 6 separate experiments, each performed in triplicate. * p<0.05, p<0.01.

MDA-MB-468 cells [3] = experiment: Migration of MDA-MB-468 cells in modified Boyden chamber; type: cell-based, human; details: 18 h
Protocol: The HB2 mammary epithelial cell line, a subclone of the MTSV-1.7 cell line, originating from the laboratory of Dr. J. Taylor-Papadimitriou (11) was used. The HB2 cells were cultured in DMEM supplemented with 10% FBS, 5 U/mi penicillin, 0.5 U/ml streptomycin, 2 mM glutamine, 10 μg/ml bovine insulin and 5 μg/ml hydrocortisone. The human mammary carcinoma cell lines MCF-7 and MDA-MB-468 were cultured in DMEM supplemented with 10% FBS, 5 U/ml penicillin, 0.5 U/ml streptomycin and 2 mM glutamine. The pH-experiments were done in MEM supplemented with 10 mM Tris, 0.5% BSA, 5 U/ml penicillin, 0.5 U/ml streptomycin and 2 mM glutamine. The pH 7.4-medium was further supplemented with 4 mM sodium bicarbonate whereas the pH 6.7-medium was not. All cells were incubated at 37° C. in 95% air and 5% CO2.
Cell migration analyses were performed in a modified Boyden chamber with a polycarbonate membrane (10 μm thick with a porous diameter of 8.0 μm) separating the two chambers (Transwell®; Costar, Cambridge, Mass.). As indicated in some experiments the membranes were coated with collagen by adding collagen-I (10 μg/ml) diluted in 0.25% acetic acid to the upper chamber for 1 h at 37° C., after which it was washed three times with PBS. Each experiment was initiated by detaching the cells by Versene treatment for 10-20 min at 37° C., washed, and re-suspended as a single cell suspension in serum-free DMEM medium supplemented with 0.5% BSA. Together with the indicated agonist a 0.2 ml cell suspension (containing 25,000 MDA-MB-468 or 50,000 HB2 cells) was then added to the upper chamber of the transwell. The lower chamber was filled with 0.6 ml serum-free but BSA-containing DMEM medium supplemented with 1 ng/ml of the chemoattractant IGF-I. As a control, IGF-I was excluded in some wells in each separate experiment. The cells were allowed to migrate in the Boyden chamber for 18 h at 37° C. in a humidified atmosphere of 95% air and 5% CO2. The experiments were terminated by removing the non-migratory cells with a cotton-tipped applicator from the upper surface of the membranes. The remaining cells on the lower surface that had migrated through the membrane were stained for 20 min with 0.5% crystal violet diluted in 20% methanol/80% water. After washing the membranes the number of stained cells per membrane and well was counted in an inverted microscope. The value from each separate experiment represents the median value of three individual wells.
Peptide-induced effects on MDA-MB-468 tumour cell migration and their content of F-actin. (A) The cells were allowed to migrate for 18 h in the absence or presence of the indicated peptides (100 μM) The data in panel A are expressed as means±SEM of 8 separate experiments, each performed in triplicate. * p<0.05. (B) The cells were allowed to adhere to collagen I-coated cover glasses for 18h in the absence or presence of peptide 175 (100 μM). The cells were then stained with Alexa488-Phalloidin as described in the methods section. The illustrated micrographs are representative of 5 separate experiments.
as §2
Effects of Frz-5 receptor blocking and reduced pH on the abilities of the formylated hexapeptide and Wnt-5a to inhibit tumour cell migration. […]

Frz-5 receptor = Frz-5 receptor (Homo sapiens, UniProt Q13467); experiment: MDA-MB-468 cell migration with Frz-5 receptor blocking Ab or control anti-Frz-2 Ab; type: cell-based; parameters: endogenous in cells; host or cells: MDA-MB-468; details: formylated hexapeptide 100 μM; Ab 5 μg/ml; 18 h
Protocol: The peptide […], corresponding to amino acids 198-217 in the ectodomain of the human Frz-5 receptor was as previously described used to generate a Frz-5 receptor blocking Ab (13). The peptide […], corresponding to amino acids 202-220 in the ectodomain of the human Frz-2 receptor, was used to generate a control anti-Frz-2 Ab. The synthesis of the peptides (the italic letters indicate the Frz-5 and Frz-2 sequences, the cysteine was added for raising and purifying the Ab) and the production of rabbit anti-Frz-5 and anti-Frz-2 antisera were managed by AgriSera (Vännäs, Sweden; permit A69-04 from Ume(a) animal ethic committe). The antisera were affinity purified in the laboratory by coupling the respective peptide antigen to Sulfolink Sepharose over which the respective antisera was then eluted.
Cell migration analyses were performed in a modified Boyden chamber with a polycarbonate membrane (10 μm thick with a porous diameter of 8.0 μm) separating the two chambers (Transwell®; Costar, Cambridge, Mass.). As indicated in some experiments the membranes were coated with collagen by adding collagen-I (10 μg/ml) diluted in 0.25% acetic acid to the upper chamber for 1 h at 37° C., after which it was washed three times with PBS. […] After washing the membranes the number of stained cells per membrane and well was counted in an inverted microscope. […]

Chain of Frz-5 receptor (Q13467 27-585): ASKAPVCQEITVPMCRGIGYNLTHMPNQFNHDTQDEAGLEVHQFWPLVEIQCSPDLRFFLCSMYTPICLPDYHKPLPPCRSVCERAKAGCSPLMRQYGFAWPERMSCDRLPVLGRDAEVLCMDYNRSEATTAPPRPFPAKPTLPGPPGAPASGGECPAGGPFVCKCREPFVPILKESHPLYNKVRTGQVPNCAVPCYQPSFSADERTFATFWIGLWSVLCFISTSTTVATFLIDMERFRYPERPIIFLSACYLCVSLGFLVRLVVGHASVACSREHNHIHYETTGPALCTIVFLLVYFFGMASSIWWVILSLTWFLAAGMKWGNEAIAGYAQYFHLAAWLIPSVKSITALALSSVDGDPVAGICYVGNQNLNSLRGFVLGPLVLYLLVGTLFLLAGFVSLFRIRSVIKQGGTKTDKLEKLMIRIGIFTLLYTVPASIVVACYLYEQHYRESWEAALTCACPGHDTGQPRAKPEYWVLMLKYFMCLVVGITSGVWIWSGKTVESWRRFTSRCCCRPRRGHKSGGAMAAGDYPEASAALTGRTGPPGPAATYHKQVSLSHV

Substance: DARERERIHAKGSYE [peptide 168, Wnt-5a aa 183-197]
DDR1 phosphorylation (DDR1): significant DDR1 phosphorylation
adhesion to collagen I ([1]; crude peptide (65% pure) 100 μM, 90 min): did not have any effect on adhesion

Substance: EGMDGCEL (Human) [octapeptide, N-terminal deletion variant of peptide 175]
adhesion to collagen I, N-terminal deletion variants and formylation of peptide 175 (MDA-MB-468 cells [2]): still had adhesion-increasing effects

Substance: LGTQGRLCNKTSEGMDGCEL (Human) [peptide 174, Wnt-5a aa 303-322]
adhesion to collagen I, concentration-dependent analysis [1]: not as effective as the shorter peptide 175

Substance: MDGCEL [hexapeptide, N-terminal deletion variant of peptide 175]
adhesion to collagen I, N-terminal deletion variants and formylation of peptide 175 (MDA-MB-468 cells [2]): no effect was detectable and none

Substance: VKAKKATEIVDQFVA [compound 170, Wnt-5a aa 350-364; the 3 cysteines exchanged to alanines]
DDR1 phosphorylation (DDR1): significant DDR1 phosphorylation
adhesion to collagen I, concentration-dependent analysis [1]: lost or less consistent

Substance: fMet-Leu-Phe (MLF) [reference compound]
MDA-MB-468 cell adhesion (MDA-MB-468 cells [2]): 15.7±4.5
MDA-MB-468 cell adhesion (MDA-MB-468 cells [2]; listed as N-formyl-Met-Leu-Phe): no effect

effect on migration in presence of anti-Frz-5 or anti-Frz-2 Ab (Frz-5 receptor): mediated via the Frz-5 receptor
Substance: formyl-Met-Asp-Gly-Cys-Glu-Leu (For-MDGCEL) [formylated hexapeptide]
inhibition of migration at pH 6.7 versus pH 7.4 (MDA-MB-468 cells [3]; 10 μM): as effective in inhibiting MDA-MB-468 cell migration at pH 6.7 as at pH 7.4
motility (migration) (MDA-MB-468 cells [3]; 10 μM): significantly impaired the motility
minimal concentration that had a significant effect on migration (MDA-MB-468 cells [3]): 10 µM
adhesion to collagen I, N-terminal deletion variants and formylation of peptide 175 (MDA-MB-468 cells [2]): restored, and possibly even potentiated its effect on adhesion
